Measurements published in patent US9695396B2, “Regenerated tissue comprising a stratified structure of epithelial cells” (JAPAN SCIENCE AND TECHNOLOGY CORPORATION, priority 2001, dated 2017).

Key:
AOI cancer tissue = test: cancer therapy sensitivity test by MTT assay, AOI on NHBE, lung-derived fibroblasts (NHLF) as feeder layer; format: cell-based, human; conditions: 10 μg/ml for 72 hours
[1] = tested on: regenerated normal bronchial epithelial tissue (NHBE); test: cancer therapy sensitivity test by MTT assay, regenerated normal tissue, SuSa feeder layer (Embodiment 3); conditions: 10 μg/ml for 72 hours
Method: (§1) The cancer therapy sensitivity test was conducted in comparison with a conventional two-dimensional culture MTT assay system.
(§2) In these figures, a column of the cancer name (e.g: AOI) corresponds to the sensitivity of the cancer cells in the two-dimensional culture.
(§3) Also in these figures, the brackets the MTT assay correspond, from the left, the normal epithelial cell name employed (this time a bronchial epithelium (NHBE) or prostatic epithelium (PrEC)), the culture medium (1/10-fold or 1-fold), the fibroblast name employed as a feeder layer (human skin-derived (SUSA) or lung-derived (NHLF)). […] The drug treatments with all of three drugs employed here were conducted at 10 μg/ml for 72 hours.

AOI lung cancer cells = test: cancer therapy sensitivity test by MTT assay, AOI on NHBE in stratified structure, SuSa feeder layer (Embodiment 3); format: cell-based, human; conditions: 10 μg/ml for 72 hours
Method: as §1, §2, §3

AOI tumor = AOI tumor transplanted to a nude mouse; format: in vivo
hepatoma cells Alex = test: cancer therapy sensitivity test by MTT assay on regenerated tissue (Embodiment 2), hepatoma; format: cell-based, human; conditions: combination of irradiation with cisplatin; Alex on Nheps regenerated tissue
ACHN-L4 cells = test: cancer therapy sensitivity test by MTT assay on regenerated tissue (Embodiment 2), renal cancer; format: cell-based, human; conditions: novel sensitivity test, ACHN-L4 on RPTEC/NHMC regenerated tissue
[2] = tested on: prostatic cancer-derived DU-145 cancer cells; test: cancer therapy sensitivity test by MTT assay, DU-145 on PrEC in stratified structure, SuSa feeder layer (Embodiment 3); format: cell-based, human; conditions: 1/10-fold culture medium, 10 μg/ml for 72 hours
[3] = tested on: regenerated normal bronchial epithelial tissue (NHBE); test: cancer therapy sensitivity test by MTT assay, regenerated normal tissue, lung-derived fibroblasts (NHLF) as feeder layer; format: cell-based, human; conditions: 10 μg/ml for 72 hours
Method: as §1, §2, §3

[4] = 1-fold culture medium, lung-derived fibroblast feeder
[5] = 1/10-fold culture medium, lung-derived fibroblasts as feeder

Compound | difference in sensitivity between the skin-derived and lung-derived fibroblasts (AOI cancer tissue; 1/10-fold culture medium) | resistance of 3-dimensionally growing normal tissue ([1]; 1-fold level culture medium, drug alone) | resistance of 3-dimensional normal tissue coexisting with the cancer tissue compared with the normal tissue alone ([1]; 1/10-level medium, drug alone) | resistance of 3-dimensional AOI cancer tissue coexisting with the normal tissue compared with 2-dimensionally cultured AOI cells (AOI lung cancer cells; 1/10-level medium, drug alone) | sensitivity of AOI tumor to mitomycin compared with cisplatin (AOI tumor; nude mouse-transplanted tumor) | difference in the sensitivity of the AOI cancer tissue by the difference in the fibroblasts (AOI cancer tissue; 1-fold culture medium, lung-derived vs skin-derived fibroblast feeder) | MTT assay result compared with the HDRA method (hepatoma cells Alex) | sensitivity of cancer cells in the MTT assay (ACHN-L4 cells) | tendency of 3-dimensional tissue to be more resistant than two-dimensional culture (AOI lung cancer cells; degree influenced by growth factor level in medium) | sensitivity of DU-145 cancer cells compared with the AOI cells [2] | body weight of the nude mouse reduced to (fraction) (AOI tumor; cisplatin at 10 mg/kg) | tumor growth (AOI tumor; cisplatin at 10 mg/kg, nude mouse) | sensitivity of the AOI cancer cell tissue in 3-dimensional culture (AOI cancer tissue; [4]) | sensitivity of tissue in MTT assay (AOI cancer tissue; [5]) | sensitivity of the normal tissue in 3-dimensional culture [3, 4] | sensitivity of tissue in MTT assay [3, 5] | proliferation of regenerated normal tissue ([1]; 1-fold culture medium, 5FU alone) | growth of the regenerated normal bronchial epithelial tissue after removing co-cultured AOI cancer tissue ([1]; 1/10-fold culture medium)
CO[C@@]12[C@H](COC(N)=O)C3=C(C(=O)C(C)=C(N)C3=O)N1C[C@@H]1N[C@@H]12 [MMC, mitomycin] | no substantial difference | rather more resistant | rather more resistant | more resistant | rather more sensitive | – | – | – | – | – | – | – | – | – | – | – | – | –
N.N.[Cl][Pt][Cl] [cisplatin] | – | – | – | – | – | small | exhibited the difference in the effect | highly sensitive | tendency described above was observed also | rather resistant | about ⅔ | retarded growth was observed only for several days | – | – | – | – | – | –
O=c1[nH]cc(F)c(=O)[nH]1 [5FU] | – | – | – | – | – | – | – | – | – | highly sensitive | – | – | reduced sensitivity | no tissue exhibited any sensitivity | reduced sensitivity | no tissue exhibited any sensitivity | proliferation was rather promoted | tendency of the promotion of the growth
